Results published in patent US9540615B2, “Combined chemical and genetic approaches for generation of induced pluripotent stem cells” (The Scripps Research Institute, priority 2008, dated 2017).

How the values were obtained:
[1] = system: OG2 MEFs transduced with OK (Oct4 and Klf4); test: iPSC generation from OK-transduced OG2 MEFs (GFP+ colonies), including second synergist screen with BIX; type: cell-based, mouse; settings: OK transduced OG2 MEFs; 3 independent experiments, standard deviation; OK alone 0.5±0.7
Description: Primary 129S2/SvPasCrlf (primary screen) or ROSA26^+/−/OG2^+/− (secondary screen) MEFs were plated onto Matrigel (1:50; BD Biosciences, Bedford, Mass.) coated dishes at a density of 3.5×10^4 cells per well of a 6-well plate. Twenty-four hours later, these cells were transduced overnight with defined retroviruses at 37° C., 5% CO2. Twelve to fourteen hours later, the media on the transduced cells was changed to mESC medium [Knockout DMEM, 10% ES-qualified FBS, 10% Knockout serum replacement, 1% Glutamax, 1% Non-essential amino acids, penicillin/streptomycin, 0.1 mM β-mercaptoethanol, 1% EmbryoMax ESC Qualified Nucleosides (Millipore, Temecula, Calif.), and 10^3 U/ml LIF (Millipore)] (all products were from Invitrogen, Carlsbad, Calif., except where mentioned). On that same day, individual small molecules from our known drug collection were added to the cells at a range between 0.5 and 2 μM. Compound treatment was continued for 10-14 days; the cells were fixed and stained on day 14-21 using a standard ALP detection kit (Millipore). For the second screen, 1 μM BIX was added to the mESC medium 1 day after transduction. Five days later, in addition to 1 μM BIX, individual small molecule from the known drug collection was added to each well, at a range between 0.5 and 2 μM. Mouse ESC media with defined small molecules was refreshed every three days until colonies with a similar morphology to mESCs were observed, which was usually between 14-21 days after transduction. […] Further characterization studies and repeats were carried either on primary 129S2/SvPasCrlf or ROSA26^+/−/OG2^+/− MEFs. When ROSA26^+/−/OG2^+/− MEFs were used, the iPSC colonies could also be identified through GFP expression, as a marker of Oct4 expression. Once iPSC colonies were identified, they were picked for expansion on MEF feeder cells in mESC medium.

[2] = system: 129 MEFs transduced with OK (Oct4 and Klf4); test: Screen for iPSC generation from OK-transduced 129 MEFs (ESC-like colony morphology, ALP staining); type: cell-based, mouse
Description: Unmodified MEFs derived from E13-14 embryos of the 129 mice were used for the initial screen. MEFs were plated on Matrigel at 3.5×10^4 cells/well of a 6-well plate and transduced with OK (retroviral vectors expressing Oct4 and Klf4) alone. Within 14-21 days, treated cells were assessed for the appearance of colonies that had the characteristic embryonic stem cell (ESC), colony morphology and were positive for the pluripotency marker alkaline phosphatase (ALP). Such OK-transduced cells generated only a few small non-compact colonies, which were weakly positive for ALP expression. These colonies initially appeared within 21 days after viral transduction and were difficult to expand. Therefore, such assay system offered a clean background for the identification of small molecules having desirable reprogramming inducing activity. Using this system, compounds from a library of around 2000 known small molecules (see Experimental Procedures below) were screened and were identified as hits when they induced the appearance of ESC colonies that were strongly positive for ALP within 14-21 days after treatment. This image-based method provided a more accurate assessment of reprogramming as compared to homogenous reporter-based assay. BIX appeared to have the strongest effect with reproducible induction of more than 1-2 compact ESC-like colonies with high ALP expression. We observed that when MEFs were treated with BIX after OK viral transduction, compact colonies with strong ALP expression could be readily detected within approximately 14-21 days. These cells were also positive for Nanog, Oct4 and SSEA-1 expression. […] However, the reprogramming efficiency in MEFs transduced with OK and treated with BIX was still low, about 2 colonies/3.5×10^4 cells, in comparison to the four factor-induced reprogramming of MEFs or the OK/BIX NPC reprogramming (Shi, Y. et al., Cell Stem Cell, 2:525-528 (2008)). Therefore, we conducted a second screen using a similar protocol, but where BIX was added to the basal media after OK viral transduction. This provided a more permissive platform to identify new small molecules that could further improve reprogramming efficiency. More importantly, this second screen could facilitate discovery of small molecules that impact reprogramming in a more specific manner, for example by acting on signal transduction pathways rather than on histone or DNA modifying enzymes. In this second screen, we again assayed the library of around 2000 known small molecules (see Experimental Procedures), and confirmed two compounds that were able to act in a synergistic manner with BIX to improve reprogramming based on the criteria of the screen. […] Therefore, RG108 was not pursued further for this study. […]

Compound: COc1cc2nc(N3CCCN(C)CC3)nc(NC3CCN(Cc4ccccc4)CC3)c2cc1OC [BIX01294]
- number of GFP+ colonies (reprogramming efficiency) [1]: 2.5±0.7 colonies per 3.5×10^4 cells
- reprogramming efficiency ([2]; MEFs transduced with OK and treated with compound): about 2 colonies/3.5×10^4 cells
- number of ALP+ colonies that closely resemble the mESC morphology ([2]; OK-transduced MEFs): about 2 colonies
- induction of compact ESC-like colonies with high ALP expression ([2]; primary screen, compounds 0.5-2 μM, 14-21 days, 3.5×10^4 cells/well): 1-2 colonies
